Laboratory results published in BindingDB's records for doi:10.7270/Q2CV4KX9 (n/a, 1995).

assay: Binding affinity was measured by its ability to displace [3H]CCK-8S from CCK-B receptor in guinea pig brain

Question: Which Ki does the source give for `CC(C)CCN1C(=O)C(NC(=O)Nc2ccccc2)C(=O)N(c2ccccc2)c2cc(F)ccc21` (stereo not given) here?
Answer: 224 nM

Question: With `CC(C)CCN1C(=O)C(NC(=O)Nc2ccccc2)C(=O)N(c2ccccc2)c2cc(Cl)ccc21` (stereo not given) as the compound, how does the Ki read?
Answer: 955 nM

Question: With `CC(C)CCN1C(=O)C(NC(=O)Nc2ccccc2)C(=O)N(c2ccccc2)c2ccc(F)cc21` (stereo not given) as the compound, how does the Ki read?
Answer: < 1000 nM

Question: Which Ki does the source give for `CC(C)CCN1C(=O)C(NC(=O)Nc2ccccc2)C(=O)N(c2ccccc2)c2cc(Cl)c(Cl)cc21` (stereo not given) here?
Answer: 1580 nM

Question: Which Ki does the source give for `CC(C)CCN1C(=O)C(NC(=O)Nc2ccccc2)C(=O)N(c2ccccc2)c2ccc(Cl)cc21` (stereo not given) here?
Answer: 955 nM
